Source: US20250179037A1 (Jiangsu Jibeier Pharmaceutical Co., Ltd., priority 2021, published 2025)
Converted amounts (≈) assume the structure as drawn. Marks after values point to notes of the source that are not given here.

Legend:
[1] = Test on saturated solubility in water (HPLC); type: physicochemical; settings: for solubility property (compared with crystalline form C): conclusion from water saturation solubility table; for Solubility in 1 h / Solubility in 2 h / Solubility in 18 h: 37° C.
Experimental: Test on Saturated Solubility in Water:
• Chromatographic column: KromasiL C18 4.6*250 mm, 5 m • Column temperature: 30° C. flow rate: 1.0 mL/min sample size: 20 μL detection wavelength: 210 nm • Mobile phase: acetonitrile-water-glacial acetic acid (42:58:0.3) • Formulation of control solution: 10 mg of leucogen as a control product was precisely weighed, put in a 100-mL measuring flask, dissolved with the mobile phase, and diluted to the scale to afford 100 μg/mL of mother solution, and the mother solution was subjected to 10-fold, 100-fold, and 1000-fold serial dilutions to afford solutions at the concentrations of 10 μg/mL, 1 μg/mL, and 0.1 μg/mL, respectively.
Formulation of test solution: about 20 mg of 211118 batch (crystalline form A) and 211124 batch (crystalline form B) of the leucogen samples were weighed, each for 3 copies, and put in six 10-mL test tubes with stoppers respectively; 10 mL of water was added respectively; the test tubes were oscillated under the conditions of 37° C. and 100 r/min for 1 h, 2 h, and 18 h respectively; the resultants were filtered through 0.45-μm microporous filter membranes, and the filtrates were taken as the test solutions.
The control solution and the test solutions were tested under the above chromatographic conditions, separately. The area of the control solution was linearly regressed with its concentration. The saturated solubility in water was obtained from the peak areas of the test solutions.

[2] = TGA/DSC test (thermostability); type: physicochemical; settings: for thermostability (compared with crystalline form C): conclusion from TGA/DSC table
Excerpt: TGA and DSC Test Methods:
TGA and DCS patterns were collected on TA Discovery TGA 5500 thermogravimetric analyzer and TA Discovery DSC 2500 differential scanning calorimeter, respectively.

[3] = system: mice leukopenia models (peripheral blood leukocytes); test: Cyclophosphamide-induced mice leukopenia model, leukocyte counts; type: in vivo, male Balb/C mice; settings: for Leukocyte Level, End of treatment: 30 mg/kg intragastric once daily for 28 days, Day 29; for Leukocyte Level, End of treatment / Leukocyte Level, Before modeling / Leukocyte Level, After modeling: X ± S; for Leukocyte Level, Before modeling / Leukocyte Level, After modeling: 30 mg/kg intragastric once daily; for Leukocyte Level, Before modeling: Day 7 after drug administration; for Leukocyte Level, After modeling: Day 15, cyclophosphamide 25 mg/kg i.p. Day 8 to Day 14; for effect on leucocyte level compared to the leucogen crystalline form C group / leucocyte levels after treatment, compared to the model control group: 30 mg/kg, after treatment, P<0.05
Experimental: A total of 100 male Balb/C mice with the body weight ranging from 22 g to 24 g were randomly selected and randomly divided into the following five groups: the normal control group, the model control group, the leucogen crystalline form A group, the leucogen crystalline form B group, and the leucogen crystalline form C group, 20 mice in each group. In the leucogen crystalline forms A, B and C groups, the mice were intragastrically administered with 30 mg/kg once daily for a total of 28 days. In the normal control group and the model control group, the mice were administered with an equal volume of saline once daily for a total of 28 days. In the model control group and the leucogen groups, 25 mg/kg of cyclophosphamide was intraperitoneally injected in the mice at Day 8 to Day 14 respectively to establish mice leukopenia models. Blood samples were collected from the retro-orbital venous sinus of mice before modeling, after modeling, and at the end of drug administration (i.e., Day 7, Day 15, and Day 29 after drug administration) for leukocyte counts, respectively. The experimental data were statistically processed with the SPSS 17.0 software package, and expressed as mean±standard deviation (X±S), where P<0.05 indicated there was a statistical significance.

[4] = listed as Leucogen crystalline form A
[5] = water, 100 r/min, oscillated 1 h
[6] = water, 100 r/min, oscillated 2 h
[7] = water, 100 r/min, oscillated 18 h
[8] = listed as Leucogen crystalline form B
[9] = listed as Leucogen crystalline form C

With CCOC(=O)C(c1ccccc1)C1N[C@H](C(=O)O)CS1 (some centres unmarked) the “solubility property (compared with crystalline form C)” value [1] was “better than that of the crystalline form C”, the solubility ([1]; water, 37 °C, thermodynamic from solid) was no less than 240 µg/mL and the solubility at 1 h ([1]; water, 37 °C, thermodynamic from solid, 100 r/min, oscillated 1 h) was 115 µg/mL (≈ 390 µM). For the same molecule, the solubility at 2 h ([1]; water, 37 °C, thermodynamic from solid, 100 r/min, oscillated 2 h) was 137 µg/mL (≈ 465 µM), the solubility at 18 h ([1]; water, 37 °C, thermodynamic from solid, 100 r/min, oscillated 18 h) was 241 µg/mL (≈ 816 µM) and the “TGA Weight Loss (%)” value ([2]; 100° C.) was 3.07 (100° C.) %. The “thermostability (compared with crystalline form C)” value [2] was “better than that of the crystalline form C”, the “Leukocyte Level, End of treatment” value [3, 4] was 9.23 ± 1.42*^Δ 10^9/L and the “Leukocyte Level, Before modeling” value [3, 4] was 9.92 ± 1.59 10^9/L. The “Leukocyte Level, After modeling” value [3, 4] was 3.31 ± 1.43 10^9/L, the “effect on leucocyte level compared to the leucogen crystalline form C group” value [3] was “better effect” and the “leucocyte levels after treatment, compared to the model control group” value [3] was “significantly increased”.
In the case of CCOC(=O)C(c1ccccc1)C1N[C@H](C(=O)O)CS1 (single isomer, unassigned), the “solubility property (compared with crystalline form C)” value [1] is reported as “better than that of the crystalline form C”, the solubility in water ([1]; listed as crystalline form B of leucogen) is reported as no less than 256 µg/mL and the “Solubility in 1 h” value [1, 5] is reported as 161.68 µg/mL (≈ 547 µM). The “Solubility in 2 h” value [1, 6] was 177.41 µg/mL (≈ 601 µM), the “Solubility in 18 h” value [1, 7] was 256.62 µg/mL (≈ 869 µM) and the “TGA Weight Loss (%)” value ([2]; 150° C.) was 0.46 (150° C.) %. For the same molecule, the “thermostability (compared with crystalline form C)” value [2] was “better than that of the crystalline form C”, the “Leukocyte Level, End of treatment” value [3, 8] was 8.98 ± 1.13*^Δ 10^9/L and the “Leukocyte Level, Before modeling” value [3, 8] was 9.63 ± 0.99 10^9/L. For the same molecule, the “Leukocyte Level, After modeling” value [3, 8] was 3.46 ± 1.24 10^9/L, the “effect on leucocyte level compared to the leucogen crystalline form C group” value [3] was “better effect” and the “leucocyte levels after treatment, compared to the model control group” value [3] was “significantly increased”.
With CCOC(=O)C(c1ccccc1)C1N[C@H](C(=O)O)CS1 (single isomer, unassigned) [reference compound] the “Solubility in 1 h” value [1, 5] was 112.64 µg/mL (≈ 381 µM), the “Solubility in 2 h” value [1, 6] was 133.16 µg/mL (≈ 451 µM) and the “Solubility in 18 h” value [1, 7] was 227.89 µg/mL (≈ 772 µM). For the same molecule, the “TGA Weight Loss (%)” value ([2]; 70° C.) was 3.54 (70° C.) %, the “Leukocyte Level, End of treatment” value [3, 9] was 6.05 ± 1.56* 10^9/L and the “Leukocyte Level, Before modeling” value [3, 9] was 9.98 ± 1.56 10^9/L. The “Leukocyte Level, After modeling” value [3, 9] was 3.32 ± 0.89 10^9/L and the “leucocyte levels after treatment, compared to the model control group” value [3] was “significantly increased”.
